{"source": "patent US8871815B2", "about": "“Therapeutic compounds” (Signature Therapeutics, Inc., priority 2007, dated 2014)", "key": {"[1]": {"system": "GABAA receptor", "experiment": "Rat hippocampal brain slice electrophysiology assay", "type": "cell-based", "details": "in the presence of EC20 of muscimol (2 μM); CA1 population spike; read-out: EC50, potentiation of the action of agonists at the GABAA receptor", "description": "Rat hippocampal slices were prepared as follows: Male Wistar rats (100-125 g) were anesthetized with isoflurane and decapitated, the brains quickly removed, collected, blocked, and cut using a vibratome (OTS-4000, Electron Microscope Sciences) into 400 micron (μm) transverse sections. Slices were transferred to a warmed (33° C.), submerged tissue-recording chamber perfused at 2.5-3 ml/min with modified artificial cerebrospinal fluid (120 mM sodium chloride, 3.5 mM, potassium chloride, 2.5 mM calcium chloride, 1.3 mM magnesium chloride, 1.25 mM sodium phosphate, 26 mM sodium carbonate, 10 mM glucose, saturated with 95% oxygen, pH 7.4). […]\nElectrophysiology testing was accomplished as follows: A glass rod electrode (1-2 μM tip diameter) was filled with 3M sodium chloride (NaCl) and placed in the CA1 pyramidal cell layer of hippocampal slices. […] Population responses of the CA1 pyramidal cells were recorded with an Axoprobe-1A (Axon Instruments, Molecular Devices, Sunnyvale, Calif.). pCLAMP 8.2 (Axon Instruments) was used for acquiring the data, and Clampfit (Axon Instruments) was used for analysis. […] Peak to peak amplitude of the population response from each stimulus was measured as an indicator of cell excitability. […]\nData were acquired and analyzed using Clampfit and Excel (Microsoft), and reported as mean and individual values."}, "[2]": {"system": "pigs", "experiment": "Hemodynamic effects, arterial blood gas and serum chemistry in pigs, IV infusion", "type": "in vivo, pig", "set-up": "ABEc (acid base excess, corrected) / Glucose / Lactate: unit not given here", "details": "for ABEc (acid base excess, corrected) / Glucose / Lactate / Potassium / pC02 / pH / pO2: arterial blood, 0.384 mg/kg/min x 20 min IV", "protocol": "Anesthesia was induced with isoflurane. Intravascular access was obtained from an ear vein. Each pig was intubated and mechanically ventilated.\nECG was monitored throughout the study. […] Body temperature was maintained at 37° C.\nArterial blood gas samples from pigs infused with Compound 1 were taken and analyzed for blood gas and serum chemistry values; mean values are reported in Table 4."}, "[3]": {"target": "T1, phosphodiesterase 2 (PDE2) (Homo sapiens, UniProt O00408)", "T1 construct": "Cerep, Inc", "T1 sequence (O00408 whole entry)": "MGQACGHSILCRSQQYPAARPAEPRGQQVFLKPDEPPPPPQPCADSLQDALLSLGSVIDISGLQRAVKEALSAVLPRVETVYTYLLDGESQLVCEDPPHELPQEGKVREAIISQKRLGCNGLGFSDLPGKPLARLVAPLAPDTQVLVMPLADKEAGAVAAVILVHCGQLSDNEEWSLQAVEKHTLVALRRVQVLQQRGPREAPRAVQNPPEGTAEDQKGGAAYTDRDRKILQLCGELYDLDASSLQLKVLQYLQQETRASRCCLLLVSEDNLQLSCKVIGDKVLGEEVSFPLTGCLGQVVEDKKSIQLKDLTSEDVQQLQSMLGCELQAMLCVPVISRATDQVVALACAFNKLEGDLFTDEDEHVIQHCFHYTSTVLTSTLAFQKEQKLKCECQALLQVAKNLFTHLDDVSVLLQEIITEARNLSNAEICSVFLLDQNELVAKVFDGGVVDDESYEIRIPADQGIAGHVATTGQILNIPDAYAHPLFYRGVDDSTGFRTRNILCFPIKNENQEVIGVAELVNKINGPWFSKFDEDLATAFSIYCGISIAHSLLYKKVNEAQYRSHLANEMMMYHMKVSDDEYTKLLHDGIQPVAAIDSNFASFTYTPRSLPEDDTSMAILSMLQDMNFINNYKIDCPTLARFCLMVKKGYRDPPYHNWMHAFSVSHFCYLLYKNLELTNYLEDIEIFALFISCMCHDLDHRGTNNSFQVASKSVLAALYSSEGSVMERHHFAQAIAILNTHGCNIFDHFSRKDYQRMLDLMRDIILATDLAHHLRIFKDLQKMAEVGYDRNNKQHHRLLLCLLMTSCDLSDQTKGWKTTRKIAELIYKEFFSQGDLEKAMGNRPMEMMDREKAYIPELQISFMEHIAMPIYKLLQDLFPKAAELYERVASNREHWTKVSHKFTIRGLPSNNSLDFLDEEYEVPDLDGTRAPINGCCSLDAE", "experiment": "Cerep Diversity Profile: enzymes, PDE2", "type": "biochemical", "details": "tested at 10 μM; read-out: inhibition of control binding, PDE2"}, "[4]": {"system": "Beagle dogs", "experiment": "Hemodynamic effects (blood pressure) in beagle dogs, bolus IV", "type": "in vivo, dog", "details": "4 min after administration", "protocol": "The study was a crossover design. […] The MTD was defined as the dose that reduced mean arterial blood pressure (MAP) by 50% or to less than 50 millimeters of mercury (mmHg or mm Hg). All animals received supplemental oxygen and, if needed, ventilatory support after 4 min of apnea.\nHemodynamic data, such as mean arterial pressure (MAP), were recorded at baseline, 1, 2, 4, 8, 15, 20 and 30 min. Compound 1 was administered at 5, 10, 15 and 30 mg/kg to 3, 6, 6 and 3 dogs respectively. […] Data were analyzed with a 2-way ANOVA followed by t-test with Bonferroni correction for multiple comparisons."}, "[5]": {"system": "pigs", "experiment": "in vivo", "details": "384 μg per kg per min, pigs", "protocol": "Experiments were performed on commercial farm-bred swine of either sex (mean weight 33.6 kg). Anesthesia was induced with isoflurane. Intravascular access was obtained from an ear vein. Each pig was intubated and mechanically ventilated. Tissue oxygenation was monitored using continuous pulse oximetry placed on the tongue. Ventilation was monitored using an inspired/expired gas analyzer that measured oxygen, carbon dioxide, and potent inhalation agent concentrations. Ventilator settings were adjusted as needed to maintain steady state.\nECG was monitored throughout the study. Arterial blood pressure was monitored through the cannulated left femoral artery. MAP, systolic and diastolic arterial pressures and heart rate were collected every 5 seconds. An internal jugular vein was cannulated with a pulmonary artery catheter for thermodilution estimates of cardiac output and blood temperature. Body temperature was maintained at 37° C. Instrumentation for EEG monitoring was accomplished using an adhesive electrode array over the fronto-occipital regions (Aspect Medical. Norwood, Mass., USA).\nMetabolic and hemodynamic parameters for each group were compared at multiple time points using an unpaired two-tailed Student t test. To account for multiple comparisons and maintain the probability of a type I error below 0.05, P values less than 0.025 were considered significant."}, "[6]": {"experiment": "Pharmacokinetic study in domestic pigs, IV infusion", "type": "in vivo, pig"}, "[7]": {"experiment": "Anesthetic effects in rats, bolus IV, Loss of Righting Reflex (LORR)", "type": "in vivo, rat", "details": "male, Sprague-Dawley, rat, in vivo; bolus IV, rats; read-out: MTD (maximum tolerated dose)", "protocol": "(§1) Also measured was minimum dose to achieve LORR and maximum tolerated dose (MTD).\n(§2) The ranges of doses studied were 1.9, 2.3, 3.0, 7.0, 13.7, 14.0 and 15.2 mg/kg for Compound 1 and 3.5, 4.0, 7.0 and 14.0 mg/kg for […]."}, "[8]": {"system": "male Sprague-Dawley rats", "experiment": "Anesthetic effects in rats, bolus IV, Loss of Righting Reflex (LORR)", "type": "in vivo, rat", "details": "rats", "protocol": "as §1, §2"}}, "data": [{"smiles": "CC[C@@H](C)c1cccc([C@H](C)CC)c1O", "note": "[Compound 1]", "values": [{"measurement": "EC50", "setting": "[1]", "result": 2500, "unit": "nM"}, {"measurement": "metabolic alterations such as metabolic acidosis or increased lactate", "setting": "[2]; IV infusion, pigs", "result": "did not produce any significant metabolic alterations"}, {"measurement": "reduction of cardiac output compared to propofol", "setting": "[2]; IV infusion, pigs", "result": "no significant difference"}, {"measurement": "lowest HR measured", "setting": "[2]; IV infusion, pigs (Compound 1 0.384, propofol 0.750 mg/kg/min)", "result": "129±6", "unit": "bpm"}, {"measurement": "MAP (mean arterial pressure)", "setting": "[2]; IV infusion, pigs (Compound 1 0.384, propofol 0.750 mg/kg/min), FIG. 1 in mm Hg", "result": "106±3"}, {"measurement": "ABEc (acid base excess, corrected)", "setting": "[2]; pigs, Min 0", "result": 5.6}, {"measurement": "Glucose", "setting": "[2]; pigs, Min 0", "result": 99.6}, {"measurement": "Lactate", "setting": "[2]; pigs, Min 0", "result": 1.43}, {"measurement": "Potassium", "setting": "[2]; pigs, Min 0", "result": 3.80}, {"measurement": "pC02", "setting": "[2]; pigs, Min 0", "result": 38.8}, {"measurement": "pH", "setting": "[2]; pigs, Min 0", "result": 7.4861}, {"measurement": "pO2", "setting": "[2]; pigs, Min 0", "result": 390}, {"measurement": "ABEc (acid base excess, corrected)", "setting": "[2]; pigs, Min 4", "result": 5.8}, {"measurement": "Glucose", "setting": "[2]; pigs, Min 4", "result": 102.9}, {"measurement": "Lactate", "setting": "[2]; pigs, Min 4", "result": 1.24}, {"measurement": "Potassium", "setting": "[2]; pigs, Min 4", "result": 3.71}, {"measurement": "pC02", "setting": "[2]; pigs, Min 4", "result": 37.2}, {"measurement": "pH", "setting": "[2]; pigs, Min 4", "result": 7.5027}, {"measurement": "pO2", "setting": "[2]; pigs, Min 4", "result": 410}, {"measurement": "ABEc (acid base excess, corrected)", "setting": "[2]; pigs, Min 20", "result": 5.7}, {"measurement": "Glucose", "setting": "[2]; pigs, Min 20", "result": 102.0}, {"measurement": "Lactate", "setting": "[2]; pigs, Min 20", "result": 1.20}, {"measurement": "Potassium", "setting": "[2]; pigs, Min 20", "result": 3.84}, {"measurement": "pC02", "setting": "[2]; pigs, Min 20", "result": 36.8}, {"measurement": "pH", "setting": "[2]; pigs, Min 20", "result": 7.5066}, {"measurement": "pO2", "setting": "[2]; pigs, Min 20", "result": 419}, {"measurement": "ABEc (acid base excess, corrected)", "setting": "[2]; pigs, Min 80", "result": 5.4}, {"measurement": "Glucose", "setting": "[2]; pigs, Min 80", "result": 99.7}, {"measurement": "Lactate", "setting": "[2]; pigs, Min 80", "result": 1.01}, {"measurement": "Potassium", "setting": "[2]; pigs, Min 80", "result": 4.00}, {"measurement": "pC02", "setting": "[2]; pigs, Min 80", "result": 37.5}, {"measurement": "pH", "setting": "[2]; pigs, Min 80", "result": 7.4943}, {"measurement": "pO2", "setting": "[2]; pigs, Min 80", "result": 402}, {"measurement": "ABEc (acid base excess, corrected)", "setting": "[2]; pigs, Min 140", "result": 4.1}, {"measurement": "Glucose", "setting": "[2]; pigs, Min 140", "result": 100.7}, {"measurement": "Lactate", "setting": "[2]; pigs, Min 140", "result": 0.95}, {"measurement": "Potassium", "setting": "[2]; pigs, Min 140", "result": 4.10}, {"measurement": "pC02", "setting": "[2]; pigs, Min 140", "result": 37.2}, {"measurement": "pH", "setting": "[2]; pigs, Min 140", "result": 7.4803}, {"measurement": "pO2", "setting": "[2]; pigs, Min 140", "result": 399}, {"measurement": "ABEc (acid base excess, corrected)", "setting": "[2]; pigs, Min 200", "result": 3.2}, {"measurement": "Glucose", "setting": "[2]; pigs, Min 200", "result": 102.4}, {"measurement": "Lactate", "setting": "[2]; pigs, Min 200", "result": 0.96}, {"measurement": "Potassium", "setting": "[2]; pigs, Min 200", "result": 4.06}, {"measurement": "pC02", "setting": "[2]; pigs, Min 200", "result": 37.6}, {"measurement": "pH", "setting": "[2]; pigs, Min 200", "result": 7.4641}, {"measurement": "pO2", "setting": "[2]; pigs, Min 200", "result": 356}, {"measurement": "inhibition at 10 µM", "setting": "[3]", "result": "> 20", "unit": "%"}, {"measurement": "MAP % change from baseline", "setting": "[4]; 10 mg/kg bolus IV", "result": "+11%"}, {"measurement": "MAP % change from baseline", "setting": "[4]; 15 mg/kg bolus IV", "result": "−25", "unit": "%"}, {"measurement": "MAP % change from baseline", "setting": "[4]; 30 mg/kg bolus IV", "result": "−41", "unit": "%"}, {"measurement": "IV infusion time producing maximal suppression of BIS", "setting": "[5]", "result": "14.7 ± 3.8", "unit": "min"}, {"measurement": "Clearance", "setting": "[6]; pig, IV infusion", "result": "exceeded estimated hepatic blood flow"}, {"measurement": "metabolic pathway", "setting": "[6]; pigs", "result": "glucuronidation in the 1-position with the 4-position being subject to hydroxylation followed by glucuronide and sulfate conjugation"}, {"measurement": "MTD", "setting": "[7]", "result": 14, "unit": "mg/kg"}, {"measurement": "deaths", "setting": "[8]; 15.2 mg/kg bolus IV", "result": "Two rats died"}, {"measurement": "HD50 (dose required to cause 50% of the rats to lose righting reflex)", "setting": "[8]; bolus IV", "result": 2.1, "unit": "mg/kg"}, {"measurement": "HD7min (dose required to produce 7 minutes of anesthesia)", "setting": "[8]; bolus IV", "result": 2.3, "unit": "mg/kg"}, {"measurement": "TI (therapeutic index, ratio of MTD to HD7 min)", "setting": "[8]; bolus IV", "result": 6.1}]}]}
